Values belong to the compound of their own block, whether it stands above or below them. Starred links: 1 amine or outer side, 2 acyl side, 3 side chain; linkers in the order of their positions; H or OH if unused. Positions of bridges follow the written chain, without caps; N, C: chain ends. Non-standard residues stand in square brackets, D forms with d. Residues, ends and D or L forms follow the SMILES beside them. ξ: configuration not given here. Cys(O)(CH2CO) = O=C([C@H](C[S+]([O-])CC(=O)[*:3])N[*:1])[*:2]; NMeR = CN[C@@H](CCCNC(=N)N)C(=O)O; hArg = N=C(N)NCCCC[C@H](N)C(=O)O; 3Amb = NCc1cccc(C(=O)O)c1; ξR = N=C(N)NCCCC(N)C(=O)O; dAbu = CC[C@@H](N)C(=O)O; Mpa = O=C(O)CCS
Tests used:
[1] = Inhibition of platelet aggregation
[2] = In vitro inhibition of gel filtered platelet aggregation induced by ADP.
[3] = Inhibition of ADP-induced platelet aggregation in human platelet rich plasma
[4] = Inhibition of human platelet aggregation collected with sodium citrate as anticoagulant
[5] = Inhibition of human platelet aggregation
[6] = Inhibition canine platelet aggregation in platelet rich plasma (PRP)
[7] = Inhibition of […] and platelet aggregation in human platelet rich plasma
[8] = Inhibition of human platelet aggregation; remark: listed apart in the source
[9] = Inhibition of platelet aggregation; remark: listed apart in the source
[10] = Inhibition of platelet aggregation; remark: listed apart in the source
[11] = Inhibition of human gel filtered platelet aggregation induced by ADP
[12] = Inhibition of human platelet aggregation; remark: listed apart in the source

Compound: CC(C)[C@H](NC(=O)[C@H](CC(=O)O)NC(=O)CNC(=O)Cc1ccc(C(=N)N)cc1)C(=O)O
IC50 [1]: 300 nM

Compound: O=C(NC[C@H](NS(=O)(=O)c1ccccc1)C(=O)O)c1cc2cc(OCC3CCNCC3)ccc2[nH]1 [2-Benzenesulfonylamino-3-{[5-(piperidin-4-ylmethoxy)-1H-indole-2-carbonyl]-amino}-propionic acid(L-756568)]
IC50 [2]: 13 nM

Compound: Cc1noc(C)c1S(=O)(=O)N[C@@H](CNC(=O)C1CCC2(CC1)CCN(c1ccncc1)CC2)C(=O)O [2-(3,5-Dimethyl-isoxazole-4-sulfonylamino)-3-[(3-pyridin-4-yl-3-aza-spiro[5.5]undecane-9-carbonyl)-amino]-propionic acid]
IC50 [2]: 44 nM

Compound: Cc1ccc(S(=O)(=O)N[C@@H](CNC(=O)c2ccc3oc(-c4ccc(C(=N)N)cc4)nc3c2)C(=O)O)cc1 [(S)-3-{[2-(4-Carbamimidoyl-phenyl)-benzooxazole-5-carbonyl]-amino}-2-(toluene-4-sulfonylamino)-propionic acid]
IC50 [2]: 10 nM

Compound: N=C(N)NCCCC[C@@H]1NC(=O)CCSSC[C@@H](C(N)=O)NC(=O)[C@@H]2CCCN2C(=O)[C@H](Cc2c[nH]c3ccccc23)NC(=O)[C@H](CC(=O)O)NC(=O)CNC1=O ([Mpa][hArg]GDWPC-NH2; disulfide 1-7)
IC50 [4]: 140 nM

Compound: N=C(c1ccc(C(=O)Nc2ccc3c(c2)C[C@@H](CC(=O)O)CO3)cc1)N1CCOCC1 [{(S)-6-[4-(Imino-morpholin-4-yl-methyl)-benzoylamino]-chroman-3-yl}-acetic acid]
IC50 [2]: 35 nM

Compound: C#C[C@H](CC(=O)O)NC(=O)CN1CCc2ccc(N3CCNCC3)cc2C1=O [L-767679]
IC50 [2]: 12 nM

Compound: Cc1ccc(S(=O)(=O)N[C@@H](CCC(=O)N2CCC3(CC2)C(=O)N(c2ccc(C(=N)N)cc2)C(=O)N3C)C(=O)O)cc1 [5-[3-(4-Carbamimidoyl-phenyl)-1-methyl-2,4-dioxo-1,3,8-triaza-spiro[4.5]dec-8-yl]-5-oxo-2-(toluene-4-sulfonylamino)-pentanoic acid]
IC50 [2]: 59 nM

Compound: CC(C)CC(=O)N[C@@H](CCCCNC(=O)c1ccc(C(=N)N)cc1)CC(=O)O [7-(4-Carbamimidoyl-benzoylamino)-3-(3-methyl-butyrylamino)-heptanoic acid (GPI 562)]
IC50 [8]: 15 nM

Compound: CCCCOC(=O)N[C@@H](CNC(=O)C[C@H]1CC(c2ccc(C(=N)N)cc2)=NO1)C(=O)OC [2-Butoxycarbonylamino-3-{2-[3-(4-carbamimidoyl-phenyl)-4,5-dihydro-isoxazol-5-yl]-acetylamino}-propionic acid methyl ester(DMP 754(roxifiban))]
IC50 [5]: 60 nM

Compound: COc1ccc(C[C@H](NC(=O)[C@H](CC(=O)O)NC(=O)CNC(=O)[C@@H](N)CCCNC(=N)N)C(N)=O)cc1 [SC-46749] (H-RGDY(Me)-NH2)
IC50 [9]: 32000 nM

Compound: N=C(N)c1ccc(N2CCN(c3ccc(OCC(=O)O)cc3)CC2)cc1 [{4-[4-(4-Carbamimidoyl-phenyl)-piperazin-1-yl]-phenoxy}-acetic acid]
IC50 [7]: 20 nM

Compound: Cc1c(C(=O)NCCC(=O)O)s/c(=N\C(=O)c2ccc(C(=N)N3CCC4(CC3)OCCO4)cc2)n1C [3-[(2-{4-[(1,4-Dioxa-8-aza-spiro[4.5]dec-8-yl)-imino-methyl]-benzoylimino}-3,4-dimethyl-2,3-dihydro-thiazole-5-carbonyl)-amino]-propionic acid (PSA0613)]
IC50 [10]: 22 nM

Compound: C[C@@]1(c2ccc(C(=N)N)cc2)NC(=O)N(CC(=O)NC(CC(=O)O)c2ccccc2)C1=O (stereo partly specified) [3-{2-[4-(4-Carbamimidoyl-phenyl)-4-methyl-2,5-dioxo-imidazolidin-1-yl]-acetylamino}-3-phenyl-propionic acid(S1197)]
IC50 [11]: 20 nM

Compound: CCOC(=O)CCN(c1ncc(-c2ccc(C(N)=NC(=O)OCC)cc2)s1)C1CCN(CC(=O)OCC)CC1 [3-[{5-[4-(Ethoxycarbonylamino-imino-methyl)-phenyl]-thiazol-2-yl}-(1-ethoxycarbonylmethyl-piperidin-4-yl)-amino]-propionic acid ethyl ester (SR121787)]
IC50 [10]: > 90 nM

Further lines, results first:

IC50 [2]: 60 nM
Compound: N=C(N)c1ccc(C(=O)Nc2ccc3c(c2)CCC(CC(=O)O)C3=O)cc1 (stereo unspecified) [[6-(4-Carbamimidoyl-benzoylamino)-1-oxo-1,2,3,4-tetrahydro-naphthalen-2-yl]-acetic acid]

IC50 [3]: 65 nM
Compound: CN(C(=O)c1ccc2c(c1)NC(CC(=O)O)C(=O)N(CCc1ccccc1)C2)c1ccc(C(=N)N)cc1 (stereo unspecified) [{8-[(4-Carbamimidoyl-phenyl)-methyl-carbamoyl]-3-oxo-4-phenethyl-2,3,4,5-tetrahydro-1H-benzo[e][1,4]diazepin-2-yl}-acetic acid(SB-208651)]

IC50 [2]: 37 nM
Compound: CCCCS(=O)(=O)NC(CC#Cc1ccc2[nH]c(=O)n(CCC3CCNCC3)c(=O)c2c1)C(=O)O (stereo unspecified) [2-(Butane-1-sulfonylamino)-5-[2,4-dioxo-3-(2-piperidin-4-yl-ethyl)-1,2,3,4-tetrahydro-quinazolin-6-yl]-pent-4-ynoic acid]

IC50 [1]: 70 nM
Compound: CN(CC(=O)c1ccc(OCC(=O)O)c(OCC(=O)O)c1)C(=O)c1ccc(C(=N)N)cc1 [(4-{2-[(4-Carbamimidoyl-benzoyl)-methyl-amino]-acetyl}-2-carboxymethoxy-phenoxy)-acetic acid]

IC50 [2]: 8 nM
Compound: O=C(NC[C@H](NS(=O)(=O)c1ccccc1)C(=O)O)c1cc2c(s1)CCN(CCC1CCNCC1)C2=O [(S)-2-Benzenesulfonylamino-3-{[4-oxo-5-(2-piperidin-4-yl-ethyl)-4,5,6,7-tetrahydro-thieno[3,2-c]pyridine-2-carbonyl]-amino}-propionic acid]

IC50 [2]: 190 nM
Compound: N=C(N)c1ccc(C(=O)Nc2ccc3c(c2)CCC(CC(=O)O)O3)cc1 (stereo unspecified) [[6-(4-Carbamimidoyl-benzoylamino)-chroman-2-yl]-acetic acid]

IC50 [1]: 30 nM
Compound: CC(C)[C@H](NC(=O)[C@H](CC(=O)O)NC(=O)CCNC(=O)c1ccc(C(=N)N)cc1)C(=O)O [2-{2-[3-(4-Carbamimidoyl-benzoylamino)-propionylamino]-3-carboxy-propionylamino}-3-methyl-butyric acid (Ro 43-5054)]

IC50 [2]: 60 nM
Compound: [H]/N=C(/N)c1ccc(C2=NO[C@@H](CC(=O)NC[C@H](NC(=O)OCCCC)C(=O)O)C2)cc1

IC50 [5]: 8 nM
Compound: CCOC(=O)CN1CCN(C[C@@H]2CN(c3ccc(C(N)=NC(=O)OC)cc3)C(=O)O2)CC1 [Gantofiban]

IC50 [1]: 200 nM
Compound: N=C(N)c1ccc(C(=O)Nc2cccc(C(=O)NCCC(=O)O)c2)cc1

IC50 [6]: 72 nM
Compound: N=C(N)c1ccc(CCCCC(=O)N[C@@H](CC(=O)O)C(=O)N[C@@H](Cc2ccccc2)C(=O)O)cc1 [SC-52012]

IC50 [7]: 50 nM
Compound: C[C@@H](COc1ccc(N2CCN(c3ccncc3)CC2)cc1)CC(=O)O [3-Methyl-4-[4-(4-pyridin-4-yl-piperazin-1-yl)-phenoxy]-butyric acid (ZD 2486)]

IC50 [2]: 9 nM
Compound: CCCCS(=O)(=O)N[C@@H](CNC(=O)c1cc2n(n1)CCN(CCC1CCNCC1)C2=O)C(=O)O [(S)-2-(Butane-1-sulfonylamino)-3-{[4-oxo-5-(2-piperidin-4-yl-ethyl)-4,5,6,7-tetrahydro-pyrazolo[1,5-a]pyrazine-2-carbonyl]-amino}-propionic acid]

IC50 [3]: 160 nM
Compound: CN(C(=O)c1ccc2c(c1)CN(CCc1ccccc1)C(=O)C(CC(=O)O)N2)c1ccc(C(=N)N)cc1 (stereo unspecified) [{7-[(4-Carbamimidoyl-phenyl)-methyl-carbamoyl]-3-oxo-4-phenethyl-2,3,4,5-tetrahydro-1H-benzo[e][1,4]diazepin-2-yl}-acetic acid]

IC50 [2]: 43 nM
Compound: CCCCS(=O)(=O)NC(CC#Cc1ccc2nc(C)n(CCC3CCNCC3)c(=O)c2c1)C(=O)O (stereo unspecified) [2-(Butane-1-sulfonylamino)-5-[2-methyl-4-oxo-3-(2-piperidin-4-yl-ethyl)-3,4-dihydro-quinazolin-6-yl]-pent-4-ynoic acid]

IC50 [2]: 21 nM
Compound: Cc1noc(C)c1S(=O)(=O)N[C@@H](CCC(=O)N1CCC2(CC1)CCN(c1ccncc1)CC2)C(=O)O [2-(3,5-Dimethyl-isoxazole-4-sulfonylamino)-5-oxo-5-(9-pyridin-4-yl-3,9-diaza-spiro[5.5]undec-3-yl)-pentanoic acid]

IC50 [1]: 150 nM
Compound: N=C(N)NCCC[C@@H]1NC(=O)[C@@H](Cc2ccc(O)cc2)NC(=O)C[S+]([O-])C[C@@H](C(=O)O)NC(=O)[C@H](CC(=O)O)NC(=O)CNC1=O (stereo partly specified) [6-Carboxymethyl-12-(3-guanidino-propyl)-15-(4-hydroxy-benzyl)-1,5,8,11,14,17-hexaoxo-1lambda*4*-thia-4,7,10,13,16-pentaaza-cyclooctadecane-3-carboxylic acid (G4120)] ([dY]RGD[Cys(O)(CH2CO)]-OH; lactam N-5)

IC50 [9]: 32000 nM
Compound: CC(=O)NC(CCCNC(=N)N)C(=O)NCC(=O)N[C@@H](CC(=O)O)C(=O)N[C@H](C(N)=O)C(C)C (stereo partly specified) [3-[2-(2-Acetylamino-5-guanidino-pentanoylamino)-acetylamino]-N-(1-carbamoyl-2-methyl-propyl)-succinamic acid] (Ac-[ξR]GDV-NH2)

IC50 [1]: 30 nM
Compound: [H]/N=C(/N)c1ccc(C(=O)N[C@@H](Cc2ccc(O)cc2)C(=O)N2CCC(OCC(=O)O)CC2)cc1

IC50 [12]: 46 nM
Compound: CC[C@H]1NC(=O)c2cccc(c2)CNC(=O)[C@H](CC(=O)O)NC(=O)CNC(=O)[C@H](CCCN=C(N)N)N(C)C1=O [DMP-728] (cyclo([NMeR]GD[3Amb][dAbu]))

IC50 [7]: 59 nM
Compound: [H]/N=C(/N)c1ccc(N2CCN(C3CCN(CC(=O)O)CC3)CC2)cc1 [{4-[4-(4-Carbamimidoyl-phenyl)-piperazin-1-yl]-piperidin-1-yl}-acetic acid (GR 144053)]

Reference: BindingDB's records for doi:10.1021/jm000022w (Cor Therapeutics, 2000)
